The source of these data is publication PMC7700029, “Repurposing Napabucasin as an Antimicrobial Agent against Oral Streptococcal Biofilms” (BioMed Research International, 2020).

The subject of test [1] is Streptococcus gordonii DL1. As to the kind of experiment: Bacterial susceptibility test, microdilution in BHI (MIC/MBC). It is filed as cell-based. The settings on record: S. gordonii, planktonic cells. The method, then: (§1) Streptococcus mutans UA159, Streptococcus gordonii DL1, and Streptococcus sanguinis ATCC 10556 were kindly provided by the State Key Laboratory of Oral Diseases (Sichuan University, Chengdu, China). S. mutans, S. gordonii, and S. sanguinis were routinely grown at 37°C under aerobic condition (5% CO2) in brain heart infusion broth (BHI; Difco, Sparks, MD). Inoculum for the experiment was adjusted to 1 × 10^8CFU/mL for S. mutans, S. gordonii, and S. sanguinis based on the OD600 nm versus CFU/mL graph of each bacterium and further 1 : 100 diluted in the growth culture. When needed, medium was supplemented with 1% sucrose (designated BHIS). The minimum inhibitory concentration (MIC) and minimum bactericidal concentration (MBC) of NAP against S. mutans, S. gordonii, and S. sanguinis were determined by a microdilution method in BHI, as described previously. The concentrations of NAP ranged from 0.97 to 1000 μg/mL (twofold dilutions). BHI broth containing equivalent DMSO (1% to 0.001%, v/v) was used as a solvent control and ran simultaneously to control for the possible growth inhibition caused by the added DMSO. CHX was used as a positive control, cell control (test bacteria and BHI broth) was used as a negative control, and BHI broth was used as a blank control.
In general terms: Broth dilution looks for growth in wells or tubes with falling amounts of substance.

Test [2] relates to Streptococcus mutans UA159. The test is described as above. The test is classed as cell-based. The settings on record: S. mutans, planktonic cells. On the procedure:
as §1

Test [3] concerns Streptococcus sanguinis ATCC 10556. The test is described as above. The test is classed as cell-based. The settings on record: ATCC10556, S. sanguinis, planktonic cells. On the procedure:
as §1

The test system of test [4] is S. mutans biofilm. Nature of the test: Biofilm formation inhibition, crystal violet (MBIC). It is filed as cell-based, Streptococcus mutans. The conditions noted are these: 24 h, 90% or more inhibition of biofilm formation. On the procedure: The minimum biofilm inhibition concentration (MBIC) was used to evaluate the effect of NAP on biofilm formation. S. mutans, S. gordonii, or S. sanguinis (1 × 10^7CFU/mL, 10 μL/well) were grown in BHIS with twofold serial dilution of NAP (200 μL/well) ranging from 0.12 to 125 μg/mL at 37°C for 24 h. A parallel study was also performed with BHIS as a negative control. Then, the supernatants from the wells were decanted, and the adherent biofilm was washed three times with PBS to remove the planktonic cells. Fixed with methanol for 15 min and air-dried at room temperature, the biofilm was stained with 0.1% (wt/vol) crystal violet (Sigma) for 5 min, rinsed with deionized water until blank control wells were colorless, and added 200 μL of 95% ethanol to each crystal violet-stained well. Subsequently, the plate was rocked 30 min at room temperature, and the absorbance at 595 nm was recorded. The percentage of inhibition was calculated using the equation: (A595ofnegativecontrol − A595ofthetestgroup)/A595ofnegativecontrol × 100%.

The test system of test [5] is human gingival epithelial cells (HGE). As to the kind of experiment: In vitro cytotoxicity/viability, CCK-8. The test is classed as cell-based. The settings on record: Epithelial cell, 5 min, 5 min exposure. The method, then: (§2) Cell viability was evaluated by using the Cell Counting Kit-8 (CCK-8, Dojindo, Kumamoto, Japan) assay as described by Park et al.. Test cells were human oral keratinocytes (HOK), human gingival epithelia (HGE), and macrophage RAW264.7 (RAW264.7). Cells were plated in 96-well plates at 10,000 cells/well in minimum essential medium with the Dulbecco's modified Eagle's medium (DMEM) supplemented with 10% fetal bovine serum and 1% antibiotic-antimycotic. The cells were grown in a humidified environment with 5% CO2 at 37°C for 24 hours. Considering the short exposure duration of oral cells to mouth rinses, cells were treated with medium containing NAP (0.12 to 62.5 μg/mL) and positive control CHX for 5 min [27–29]. Then, the cells were washed with PBS twice and were added with the fresh medium (200 μL/well). Each well was added with 10 μL of CCK-8, and after incubation in the CO2 incubator for 1 h to 1.5 h, absorbance was measured at the wavelength of 450 nm. The cell viability was calculated according to the following formula: (%) = (A450oftestgroup − A450ofblankcontrol)/(A450ofnegativecontrol − A450ofblankcontrol) × 100%.

In test [6] the test system is human oral keratinocytes (HOK). Nature of the test: In vitro cytotoxicity/viability, CCK-8. It is filed as cell-based. The settings on record: Keratinocyte, 5 min, 5 min exposure, read-out: IC50 (cell viability). On the procedure:
as §2

The subject of test [7] is macrophage RAW264.7. As to the kind of experiment: In vitro cytotoxicity/viability, CCK-8. The settings on record: Mus musculus, 5 min, RAW264.7, 5 min exposure, read-out: IC50 (cell viability). The test is classed as cell-based. The method, then:
as §2

Test [8] deals with multispecies biofilms on human enamel slabs. Nature of the test: Biofilm-induced demineralization of human enamel slabs, transverse microradiography. The test is classed as cell-based, S. mutans, S. gordonii, S. sanguinis. The settings on record: 62.5 μg/mL NAP, 0.2% CHX, 5 min three times per day for 5 days; compared to negative control. From the text: Human teeth free of white spots, cracks, and other defects that had been extracted for periodontal or impacted reasons were collected under a protocol approved by the Ethics Committee of West China Hospital of Stomatology, Sichuan University (WCHSIRB-D-2018-107). Crowns were separated from roots and cut into four sections measuring 5mm × 5mm × 2mm by using a diamond-coated saw (Struers Minitom; Struers, Copenhagen, Denmark) under continuous water cooling. The enamel slabs were embedded in polymethylmethacrylate and painted with two layers of acid-resistant nail varnish, leaving a 4mm × 4mm window of the exposed enamel surface. Then, these surfaces were polished progressively with waterproof silicon carbide abrasive papers (800–4000 grit; Struers, Copenhagen, Denmark) and were ultrasonically cleaned in a deionized water for 5 min to remove the residual abrasives. All slabs were sterilized with ethylene oxide. The 30 specimens were randomly divided into 3 groups: PBS, 62.5 μg/mL NAP, and 0.2% CHX. Enamel slabs obtained from the same tooth were evenly distributed to each test group.
Overnight cultures of S. mutans, S. gordonii, and S. sanguinis (1 × 10^7CFU/mL) were simultaneously inoculated on enamel slabs in a 24-well cell culture plate with BHIS at 37°C. Slabs with biofilms were then exposed to PBS, 62.5 μg/mL NAP, and 0.2% CHX for 5 days (5 min, three times per day). The 5-day demineralization duration was in accordance with previous studies. All specimens were then washed in PBS and refreshed with BHIS after every exposure. After 5 days of treatment, specimens were taken out and rinsed with PBS to remove the biofilms. Then, specimens were cut again and polished with a hand plane—parallel from both sides with waterproof silicon carbide abrasive papers (800–4000 grit; Struers, Copenhagen, Denmark) to thickness ranging around […]. X-ray films of experimental lesions were acquired with an X-ray generator (Softex, Japan) equipped with a microradiography camera and then were further examined using a Zeiss AXIO Imager A2 microscope (Carl Zeiss, Germany). Quantitative data was acquired by a calibrated analysis system TMR2006 (Inspektor Research Systems BV, Netherlands). Data are obtained as the mean of 10 separate samples.

Molecules are shown by their SMILES. ≈ marks a conversion by molar mass, not a printed value.

As a reminder, the MBC is the smallest concentration meeting the test's criterion for killing. A higher MBC goes with weaker bactericidal potency. The term MIC denotes the lowest concentration found to suppress growth. A high value points to a less susceptible organism. One may read the IC50 as the concentration that inhibits the measured activity by half. In the case of `[H]/N=C(\N/C(=N/[H])NCCCCCCNC(=N)NC(=N)Nc1ccc(Cl)cc1)Nc1ccc(Cl)cc1` [CHX, Chlorhexidine], the MBC in test [1] was 7.81 µg/mL (≈ 15.5 µM); in test [2] it was 7.81 µg/mL (≈ 15.5 µM); in test [3], 3.91 µg/mL (≈ 7.74 µM). The MIC came out at 3.91 µg/mL (≈ 7.74 µM) in test [1], 1.95 µg/mL (≈ 3.86 µM) in test [2] and 0.49 µg/mL (≈ 0.969 µM) in test [3]. This molecule had an MBIC in test [4] of 0.98 µg/mL. In addition, the half-maximal inhibitory concentration (IC50) in test [5], in test [6] and in test [7] was 31.2 to 62.5 µg/mL (≈ 61.8 to 124 µM) in each case. For the same molecule, in test [8], the “depth of biofilm-induced lesion” value was “significantly reduced”. For the same molecule, in test [8], the “mineral loss of enamel” value is “significantly reduced”.

As to `CC(=O)c1cc2c(o1)C(=O)c1ccccc1C2=O` [NAP, 2-acetylfuro-1,4-naphathoquinone], the minimal bactericidal concentration (MBC) in test [1] amounted to 0.98 µg/mL (≈ 4.08 µM); in test [2], 15.6 µg/mL (≈ 65.1 µM); in test [3] it was 15.6 µg/mL (≈ 65.1 µM). Moreover, the MIC in test [1] is 0.49 µg/mL (≈ 2.04 µM); in test [2], 3.91 µg/mL (≈ 16.3 µM); in test [3], 0.49 µg/mL (≈ 2.04 µM). In test [4], the MBIC was 1.95 µg/mL. The IC50 in test [5], in test [6] and in test [7] was greater than 62.5 µg/mL each time. Further, the “depth of biofilm-induced lesion” value in test [8] is on record as “significantly reduced”. Besides, in test [8], the “mineral loss of enamel” value is recorded as “significantly reduced”.
